Consider 40 compounds from paper PMC6974622, “DeepMalaria: Artificial Intelligence Driven Discovery of Potent Antiplasmodials” (Frontiers in Pharmacology, 2020).

Several values for one entry are separate records, joined by “and”; a condition that tells them apart may be missing. Equal entries are not always repeated. Entries after “also recorded” stand apart in the source; their conditions may differ. Structures can show the parent of a compound that is named as a salt. Some results are limits rather than exact numbers.

One assay has as its system 3D7.
Test: not given
More on the design: unit not given here. The settings on record: cited from earlier work.
On to `OCc1cc(C(O)CNCCCCCCOCCCCc2ccccc2)ccc1O` (centres unmarked) [Salmeterol xinafoate], for which the 3D7 was 72.5.

The same assay, now with this note: repurposing dataset, 179 approved drugs; ref https://www.nature.com/articles/nchembio806; cited from earlier work.
On to `CC[C@@]1(O)C(=O)OCc2c1cc1n(c2=O)Cc2cc3c(CN(C)C)c(O)ccc3nc2-1` [Topotecan], for which the 3D7 is on record as 80.1.
Take `COCC(=O)O[C@]1(CCN(C)CCCc2nc3ccccc3[nH]2)CCc2cc(F)ccc2[C@@H]1C(C)C` [Mibefradil]: the 3D7 is on record as 92.
Take `N=C1C=CC(=C(c2ccc(N)cc2)c2ccc(N)cc2)C=C1` [Pararosaniline pamoate]: the 3D7 is reported as 97.3.
Consider `CCC(C)C(C(=O)OCC[N+](C)(CC)CC)c1ccccc1` (centres unmarked) [Valethamate], for which the 3D7 is given as 79.9.
Consider `Cc1cccc(C)c1OCC(=O)N[C@@H](Cc1ccccc1)[C@@H](O)C[C@H](Cc1ccccc1)NC(=O)[C@H](C(C)C)N1CCCNC1=O` [Lopinavir], for which the 3D7 is given as 84.9.
As to `CO[C@H]1C[C@@H]2CC[C@@H](C)[C@@](O)(O2)C(=O)C(=O)N2CCCC[C@H]2C(=O)O[C@H]([C@H](C)C[C@@H]2CC[C@@H](O)[C@H](OC)C2)CC(=O)[C@H](C)/C=C(\C)[C@@H](O)[C@@H](OC)C(=O)[C@H](C)C[C@H](C)/C=C/C=C/C=C/1C` [Rapamycin], the 3D7 is on record as 51.4.
Take `CN(C)c1ccc(C(=C2C=CC(=[N+](C)C)C=C2)c2ccc(N(C)C)cc2)cc1` [Gentian violet]: the 3D7 is given as 98.7.
`Cc1cc(C2CCCCC2)n(O)c(=O)c1` [Ciclopirox olamine]: the 3D7 is 96.9.
As for `O=C1c2c(O)ccc(O)c2C(=O)c2c(NCCNCCO)ccc(NCCNCCO)c21` [Mitoxantrone], the 3D7 is 99.2 and 98.4.
For `C=C[C@H]1CN2CC[C@H]1C[C@@H]2[C@@H](O)c1ccnc2ccccc12.C=C[C@H]1CN2CC[C@H]1C[C@@H]2[C@@H](O)c1ccnc2ccccc12.O=S(=O)(O)O` [Cinchonine sulfate], the 3D7 was 88.6.
In the case of `CCc1nc(N)nc(N)c1-c1ccc(Cl)cc1` [Pyrimethamine], the 3D7 is 96.5.
For `COc1ccc2cc3[n+](cc2c1OC)CCc1cc2c(cc1-3)OCO2` [Berberine], the 3D7 is on record as 98.2.
Take `O=S(=O)([O-])[O-].[Cu+2]` [Copper sulfate]: the 3D7 is listed as 80.4.
Consider `CCCCCCCCCCCCCCCCCC[N+](C)(C)C.[Cl-]` [Stearyltrimethylammonium chloride], for which the 3D7 is 78.6.
In the case of `COc1cc2nc(N3CCN(C(=O)C4COc5ccccc5O4)CC3)nc(N)c2cc1OC` (centres unmarked) [Doxazosin mesylate], the 3D7 is 96.4.
Regarding `CC(=O)OC[C@H]1O[C@@H]([S-])[C@H](OC(C)=O)[C@@H](OC(C)=O)[C@@H]1OC(C)=O.CCP(CC)CC.[Au+]` [Auranofin], the 3D7 is recorded as 99.4.
Take `Cc1cc(C(C)(C)CC(C)(C)C)ccc1OCCOCC[N+](C)(C)Cc1ccccc1.[Cl-]` [Methylbenzethonium chloride]: the 3D7 is 97.7.
With `CC[C@H]1CN2CCc3cc(OC)c(OC)cc3[C@@H]2C[C@@H]1C[C@H]1NCCc2cc(OC)c(OC)cc21` [Emetine], the 3D7 is listed as 98.3.
On to `C=C[C@H]1C[N@@]2CC[C@H]1C[C@H]2[C@H](O)c1ccnc2ccc(OC)cc12` [Quinine], for which the 3D7 was 98.3.
Consider `CCN(CCO)CCCC(C)Nc1ccnc2cc(Cl)ccc12` (centres unmarked) [Hydroxychloroquine], for which the 3D7 is given as 97.7.
In the case of `CN1CCc2c(c3ccccc3n2Cc2ccccc2)C1` [Mebhydrolin], the 3D7 was 57.1.
Regarding `O=C(c1ccc(OCCN2CCCCC2)cc1)c1c(-c2ccc(O)cc2)sc2cc(O)ccc12` [Raloxifene], the 3D7 is listed as 97.1.
Turning to `C[N+]1(C)CCC(=C(c2ccccc2)c2ccccc2)CC1` [Diphemanil], the 3D7 is reported as 90.
Regarding `N[C@H](C(=O)O)[C@@H]1CC(Cl)=NO1` [Acivicin], the 3D7 is 98.6.
Consider `[H]/N=C(\N/C(=N/[H])NCCCCCCNC(=N)NC(=N)Nc1ccc(Cl)cc1)Nc1ccc(Cl)cc1` [Chlorhexidine], for which the 3D7 is reported as 95.4.
With `Clc1ccc2c(c1)CCc1cccnc1C2=C1CCNCC1` [Desloratadine], the 3D7 is 81.1.
Consider `Oc1c(Br)cc(Br)c2cccnc12` [Broxyquinoline], for which the 3D7 is 90.8.

A further assay concerns P. falciparum Dd2. The assay can be described thus: Stage-specific activity assay (Giemsa smears, YOYO-1 flow cytometry). The settings on record: synchronized Dd2, compound at 3X EC50 added at 6, 18, 30, 42 hpi. In kind it is cell-based, Plasmodium falciparum. The method, then: P. falciparum Dd2 cell line was synchronized using a combination of 5% sorbitol and magnetic column separation as described ([Roberts et al., 2016]). Cultures at 2% parasitemia and 2% hematocrit were added to microtiter plate wells and measurements began 6 h post-invasion (6 hpi). Hit compounds were added at 3X EC50 concentration at specified time points. Controls are DHA (3X EC50) and untreated cultures. Giemsa-stained thin smears were made for each time point and an aliquot of the culture was fixed for flow cytometric analysis using 0.04% glutaraldehyde in PBS. After fixing and aspirating, cells were permeabilized with 0.25% Triton-100 followed by treatment with RNase (0.05 mg/ml) for 3 h. Next, YOYO 1 (10.24 µM) fluorescent dye was added and samples were analyzed ([Bouillon et al., 2013]) using Beckman Coulter (Indianapolis, IN) CytoFlex S flowcytometer.
On to `CCc1nc2ccccc2c(C(=O)N2CCC3(CCCCOCCNC(=O)c4ccccc4OC3)CC2)c1C` [DC-5931, CCC1=NC2=C(C=CC=C2)C(C(=O)N2CCC3(CC2)CCCCOCCNC(=O)C2=C(OC3)C=CC=C2)=C1C], for which the Stage specific activity entry is listed as “mostly active in early stages; also recorded: inhibit the early stages”.
Same read-out and setting: as for `Cc1cc(C)n(Cc2c(C(=O)N3CCC4(CCCCOC[C@@H]5CCCN5C(=O)c5cccc(c5)OC4)CC3)noc2C)n1` [DC-5921, CC1=NN(CC2=C(C)ON=C2C(=O)N2CCC3(CC2)CCCCOC[C@@H]2CCCN2C(=O)C2=CC(OC3)=CC=C2)C(C)=C1], the entry is “active in early stages, late Troph and early schizont; also recorded: inhibit the early stages”.

The subject of another assay is multidrug resistant P. falciparum strain Dd2. The assay is described as follows: SYBR Green I Plasmodium growth inhibition assay (fixed concentration screen and EC50). In kind it is cell-based, Plasmodium falciparum. The settings on record: Plasmodium falciparum; Pf Dd2, 1 µM, 72 h; read-out: Inhibition One-point (%). The method, then: P. falciparum cultures were maintained under standard culture conditions in RPMI 1640 medium supplemented with 25 mM HEPES, pH 7.4, 26 mM NaHCO3, 2% dextrose, 15 mg/L hypoxanthine, 25 mg/L gentamycin, and 0.5% Albumax II maintained at 37°C in 5% CO2 and 95% air. Initially, a fixed concentration phenotypic screening was performed against multidrug resistant P. falciparum strain Dd2 (resistant to chloroquine, pyrimethamine, and mefloquine) using a SYBR Green I assay ([Johnson et al., 2007]; [Vossen et al., 2010]). An EVO-150 robotic liquid handler (Tecan, Morrisville, NC) was used to aliquot compounds at a final concentration of 1 µM followed by addition of culture to 96-well plates (Greiner, Monroe, NC) at 1% parasitemia, 2% hematocrit. Plates were incubated for 72 h at 37°C in a humidified atmosphere 5% CO2/95% air prior to freezing. Plates were subsequently thawed and 1X SYBR Green I was added with lysis buffer (20 mM Tris-HCl, 0.08% saponin, 5 mM EDTA, 0.8% Triton X-100). After incubation at room temperature in dark for 1 h, the fluorescent emission was measured at excition and emission wavelengths of 485 nm and 530 nm, respectively, using a BioTek Synergy neo2 (Winooski, VT) plate reader. […] Curve fitting was performed using GraphPad Prism and EC50 value was determined for each compound.
In the case of `CCc1nc2ccccc2c(C(=O)N2CCC3(CCCCOCCNC(=O)c4ccccc4OC3)CC2)c1C` [DC-5931, CCC1=NC2=C(C=CC=C2)C(C(=O)N2CCC3(CC2)CCCCOCCNC(=O)C2=C(OC3)C=CC=C2)=C1C], the inhibition at 1 µM is 80%.
The same measure, in the same setting: the value for `Cc1cc(C)n(Cc2c(C(=O)N3CCC4(CCCCOC[C@@H]5CCCN5C(=O)c5cccc(c5)OC4)CC3)noc2C)n1` [DC-5921, CC1=NN(CC2=C(C)ON=C2C(=O)N2CCC3(CC2)CCCCOC[C@@H]2CCCN2C(=O)C2=CC(OC3)=CC=C2)C(C)=C1] was 90%.
Same read-out and setting: the value for `CN1CCOc2ccccc2CCCCCC2(CCN(C(=O)[C@@H](N)c3ccccc3)CC2)C1=O` [DC-9235, CN1CCOC2=C(CCCCCC3(CCN(CC3)C(=O)[C@@H](N)C3=CC=CC=C3)C1=O)C=CC=C2] was 92%.
Consider `CN1CCOc2ccccc2CCCCCC2(CCN(C(=O)[C@H](N)c3ccccc3)CC2)C1=O` [DC-9239, CN1CCOC2=C(CCCCCC3(CCN(CC3)C(=O)[C@H](N)C3=CC=CC=C3)C1=O)C=CC=C2], for which the inhibition at 1 µM was 79%.

The same assay, now with this note: Plasmodium falciparum; Pf Dd2, 72 h; spread given in nM.
`Cc1cc(C)n(Cc2c(C(=O)N3CCC4(CCCCOC[C@@H]5CCCN5C(=O)c5cccc(c5)OC4)CC3)noc2C)n1` [DC-5921, CC1=NN(CC2=C(C)ON=C2C(=O)N2CCC3(CC2)CCCCOC[C@@H]2CCCN2C(=O)C2=CC(OC3)=CC=C2)C(C)=C1]: the EC50 is 0.9 nM.

Staying with this assay, now noted: test dataset (macrocyclic library), class label, 1 µM.
In the case of `CC(=O)N1CCCN(Cc2ccccc2)CCN(C(=O)c2ccccc2F)Cc2cc(F)c(F)cc21`, the DD2 is given as 0 (zero if otherwise).
Still for that read-out and setting: the value for `C[C@H]1C(=O)NCCOc2ccccc2C(=O)N[C@H](C(=O)NCCCc2ccccc2)CCC(=O)N1C` was 0 (zero if otherwise); that for `Cn1cnnc1C1CCCCN1C(=O)CN1CCC2(CCCCc3ccccc3OCCCNC2=O)CC1` (centres unmarked) was 0 (zero if otherwise); that for `Cc1noc(C2CCCN2C(=O)CN2CCC3(CCCCc4ccccc4OCCCNC3=O)CC2)n1` (centres unmarked) was 0 (zero if otherwise).

Another assay deals with Pf (DD2). The assay is described as follows: Validation dataset: previously performed HTS at University of Central Florida, Chakrabarti Laboratory. Particulars: class label. In kind it is cell-based, Plasmodium falciparum. The method, then:
The validation dataset consists of the results from previously performed HTS in University of Central Florida at the Chakrabarti Laboratory, consisting of natural-products, kinase inhibitors from commercial vendors Asinex (Winston-Salem, NC)and ChemDiv (San Diego, CA) libraries. This dataset contains 4,497 molecules and their inhibition property. […] Using this external validation dataset, the realistic capabilities of the model are evaluated in the validation process. The raw data supporting the conclusions of this manuscript will be made available by the authors, without any restriction, to any qualified researcher (Supplementary Material 4).
`C=CCOC(=O)C1=C(C)NC(=S)NC1c1ccc(C(C)(C)C)cc1` (centres unmarked): the DD2 is listed as 0 (zero if otherwise).
The same measure, in the same setting: as for `COc1ccc(-c2nc3n(n2)C(c2cccnc2)C2=C(CC(C)(C)CC2=O)N3)cc1` (centres unmarked), the figure is 0 (zero if otherwise); as for `O=C1NC(=S)S/C1=C\c1ccc(O)cc1` [O=C1NC(=S)S/C1=C\c1ccc(O)cc1], 0 (zero if otherwise).
Still for that read-out and setting: as for `C=CCN1C(=O)COc2ccc(NC(=O)c3oc4cc(C)ccc4c3C)cc21`, the figure is 0 (zero if otherwise).

The next assay deals with human hepatoma cell line HepG2. The assay can be described thus: MTS based cytotoxicity assay (counter-screen for selectivity). The assay is classed as cell-based. The settings on record: 48 h. The method, then:
Selectivity was determined by counter-screening against human hepatoma cell line HepG2 in a MTS (3-(4,5-Dimethylthiazol-2-yl)-5-(3-carboxymethoxyphenyl)-2-(4-sulfophenyl)-2H-tetrazolium) based cytotoxicity assay (CellTiter 96® Aqueous One, Promega, Madison, WI) ([Riss et al., 2004]). Briefly, microtiter plates were seeded with 1,500 cells per well in a 384 well plate and incubated for 24 h at 37°C in 5% CO2/95% air atmosphere. The next day, compounds were added at seven different serially diluted concentrations starting at 25 µM d incubated for additional 48 h at stated conditions. MTS solution was next added to each well, incubated for additional 3 h at 37°C, and absorbance was read at 490 nm using BioTek Synergy neo 2 plate reader. Untreated cells served as control. Curve fitting was performed using GraphPad Prism and EC50 value was determined.
For the compound `CCc1nc2ccccc2c(C(=O)N2CCC3(CCCCOCCNC(=O)c4ccccc4OC3)CC2)c1C` [DC-5931, CCC1=NC2=C(C=CC=C2)C(C(=O)N2CCC3(CC2)CCCCOCCNC(=O)C2=C(OC3)C=CC=C2)=C1C], the EC50 was more than 25 µM.
On the same count and under the same terms, the value for `Cc1cc(C)n(Cc2c(C(=O)N3CCC4(CCCCOC[C@@H]5CCCN5C(=O)c5cccc(c5)OC4)CC3)noc2C)n1` [DC-5921, CC1=NN(CC2=C(C)ON=C2C(=O)N2CCC3(CC2)CCCCOC[C@@H]2CCCN2C(=O)C2=CC(OC3)=CC=C2)C(C)=C1] was more than 25 µM.
With `CN1CCOc2ccccc2CCCCCC2(CCN(C(=O)[C@@H](N)c3ccccc3)CC2)C1=O` [DC-9235, CN1CCOC2=C(CCCCCC3(CCN(CC3)C(=O)[C@@H](N)C3=CC=CC=C3)C1=O)C=CC=C2], the 50% effective concentration (EC50) was more than 25 µM.
As to `CN1CCOc2ccccc2CCCCCC2(CCN(C(=O)[C@H](N)c3ccccc3)CC2)C1=O` [DC-9239, CN1CCOC2=C(CCCCCC3(CCN(CC3)C(=O)[C@H](N)C3=CC=CC=C3)C1=O)C=CC=C2], the EC50 worked out at 24.2 µM.
